The numbers were not newly measured in patent publication US20240060990A1, “SPATIAL SIGNALING NETWORKS FOR MULTIPLEXED DRUG RESPONSE MEASUREMENT AND MODELING” (Georgia Tech Research Corporation, priority 2022, published 2024), which cites them from elsewhere.

For the data set, the system named is PC-9 cell cultures. To be noted: PC-9 cells, combined with Osimertinib; cited from earlier work.

For `CC(C)Nc1cc(-c2c[nH]c(C(=O)N[C@H](CO)c3cccc(Cl)c3)c2)c(Cl)cn1` [VRT, VRT752271], the cell apoptosis result is “enhanced”. In the case of `C=CC(=O)N1CCC(C)(Nc2cccc(C(F)(F)F)c2)C1` (centres unmarked) [YAP/TEAD inhibitor, MYF-01-37], the cell apoptosis entry is “enhanced”.
